Drawing on patent publication US5804595A, “Kappa opioid receptor agonists” (Regents of the University of Minnesota, priority 1995, dated 1998), this text covers IC50 for one molecule.

For this experiment, the system named is mouse vas deferens (MVD) preparations. The experiment is described as follows: Agonist potency in mouse vas deferens (MVD). The experiment is classed as biochemical. The following applies: arithmetic means of at least three experiments, read-out: IC50 (nM) ± SEM, MVD (Agonist Potencies of Parent Compounds).

Regarding `CN(C(=O)Cc1ccc(Cl)c(Cl)c1)C(CN1CCCC1)c1ccc([N+](=O)[O-])cc1` (racemic) [Compound 23, 2-(3,4-Dichlorophenyl)-N-methyl-N-[(1R,S)-1-(4-nitrophenyl)-2-(1-pyrrolidinyl)ethyl]acetamide], the IC50 was determined as 197 ± 61 nM.

For orientation: IC50 means the concentration that gives 50% inhibition.
